Patent publication US11389415B2, “Methods of regulating cannabinoid receptor activity-related disorders and diseases” (The United States of America as represented by the …, priority 2012, dated 2022)

What was measured:
[1] = tested on: HepG2 cells; assay: [3H]-Thymidine incorporation assay in HepG2 cells; format: cell-based, human
Experimental: Maintenance and Treatment of Cell Lines. Human HepG2 hepatocarcinoma cells and human U87MG glioma cells (ATCC, Manassas, Va.) were maintained in EMEM medium supplemented with 1% L-glutamine, 1% sodium pyruvate, 1% penicillin/streptomycin, and 10% FBS (Hyclone, Logan, Utah). The human 1321N1 astrocytoma cells (European Collection of Cell Cultures, Sigma-Aldrich) were cultured in Dulbecco's modified Eagle's medium supplemented with 10% FBS and penicillin/streptomycin. All cell lines were cultured at 37° C. in 5% CO2, and the medium was replaced every 2-3 days.
Cells were seeded in 12-well plates at approximately 50,000 cells/well and incubated at 37° C. After 24 hours, the wells were rinsed with PBS and replaced with serum-free medium containing the appropriate concentration of the test compounds. After another 24-hour incubation at 37° C., 1 μCi of [^3H]-thymidine was added to each well and incubated at 37° C. for 16 hours. [^3H]-Thymidine incorporation into DNA was monitored after the cells were washed twice with PBS and then lysed in 600 μL of 0.1N NaOH for 30 minutes with shaking. The lysate was then mixed with 3 mL of liquid scintillation cocktail (Beckman Coulter, Inc., Brea, Calif.), and radioactivity was measured by liquid scintillation counting using Beckman Coulter LS6000IC Scintillation Counter. Data are shown as CPM incorporated compared to the control cells.

[2] = tested on: 1321N1 cells; settings: previously reported; read-out: Mitogenesis Inhibition in 1321N1 cells (IC50 nM)* (converted); cited from earlier work
[3] = target: T1, GPR55 (Homo sapiens, UniProt Q9Y2T6); assay: GPR55 internalization assay in hGPR55-HEK293 cells; format: cell-based; settings: HEK293 stably expressing HA-tagged GPR55, 5 μM, 20 minutes
T1 sequence (Q9Y2T6 whole entry): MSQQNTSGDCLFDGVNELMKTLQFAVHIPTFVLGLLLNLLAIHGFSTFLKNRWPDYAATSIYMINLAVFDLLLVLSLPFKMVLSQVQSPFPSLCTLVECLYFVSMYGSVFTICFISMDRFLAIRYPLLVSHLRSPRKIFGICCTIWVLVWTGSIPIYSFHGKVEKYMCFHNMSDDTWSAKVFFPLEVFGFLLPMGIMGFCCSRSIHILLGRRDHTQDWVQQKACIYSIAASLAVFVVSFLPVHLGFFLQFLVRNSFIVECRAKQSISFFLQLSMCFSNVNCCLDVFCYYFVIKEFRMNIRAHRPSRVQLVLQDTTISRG
Experimental: GPR55 internalization assay. Endocytosis of GPR55 was observed following a previously described protocol with minor modifications (Henstridge et al., Br. J. Pharmacol. 160: 604-614, 2010). Briefly, hGPR55-HEK293 cells were grown on Lab-Tek II CC2 chamber slides (Thermo Scientific Nunc, Rochester, N.Y.) for 48 hours in regular media and then were serum starved for 1 hour. A preincubation with 1:1000 rabbit HA antibody (Covance, Md.) was performed in the presence of vehicle (0.1% DMSO) or 1 μM MNF in serum-free media for 45 minutes at 37° C. in the CO2 incubator. Cells were then washed extensively with PBS and treated with 5 μM 01602 in serum-free media for 20 minutes at 37° C. in the CO2 incubator. Subsequently, cells were washed three times, fixed in fresh 3.7% paraformaldehyde in PBS (10 min), and incubated with anti-rabbit Alexa Fluor 488 antibody (Molecular Probes, Eugene, Oreg.; 1:1000, 30 minutes). Cells were washed and fixed for a second time prior to permeabilization with 0.2% Triton X-100 (5 minutes). Incubation with anti-rabbit Alexa Fluor 568 antibody (Molecular Probes; 1:1000, 30 minutes) was carried out to determine the extent of internalized GPR55-HA antibody complex. […]

[4] = tested on: ERK1/2; assay: ERK1/2 phosphorylation (GPR55 downstream signaling) in HepG2 cells; format: cell-based, human; settings: HepG2, 2.5 and 10 μM, 10 minutes
Experimental: (§1) Western blot analysis. For detection of intracellular signaling proteins, cells were lysed in radioimmunoprecipitation buffer containing EGTA and EDTA (Boston BioProducts, Ashland, Mass.). The lysis buffer contained a protease inhibitor cocktail (Sigma-Aldrich) and phosphatase inhibitor cocktail (Calbiochem, San Diego, Calif.). Equivalent amount of proteins (14 and 54 μg/well for PANC-1 and HepG2 cells, respectively) were separated on 4 to 12% precast gels (Invitrogen, Carlsbad, Calif.) using SDS-polyacrylamide gel electrophoresis under reducing conditions and then electrophoretically transferred onto polyvinylidene fluoride membrane (Invitrogen). Western blots were performed according to standard methods, which involved blocking in 5% non-fat milk and incubated with the antibody of interest, followed by incubation with a secondary antibody conjugated with the enzyme horseradish perodixase. The detection of immunoreactive bands was performed by chemiluminescence using the ECL Plus Western Blotting Detection System (GE Healthcare, Piscataway, N.J.). The quantification of bands was done by volume densitometry by using ImageJ software. The rabbit polyclonal antibodies against EGFR were obtained from Cell Signaling Technology, Inc. (Beverly, Mass.) and the monoclonal anti-Hsp90 was purchased from Santa Cruz Biotechnology, Inc. (Santa Cruz, Calif.).
Effect of MNF on O-1602-mediated increase in cell signaling. Serum-starved cells were pretreated in the absence or presence of 1 μM MNF for 10 minutes followed by a 10 minute incubation with 0, 2.5 and 10 μM O-1602 or 10% FBS, after which the levels of total ERK2 and phosphorylated forms of ERK1/2 (pErk1/2, Thr202/Tyr204), were determined by Western blotting technique. All primary antibodies were purchased from Cell Signaling Technology and used at a dilution recommended by the manufacturer.

[5] = tested on: HepG2 and PANC-1 cells; assay: Cell morphology and EGFR expression in HepG2 and PANC-1 cells; format: cell-based, human; settings: 5 μM, 16 hours
Experimental: FIGS. 26A-26C show MNF interferes with inducible changes in cell morphology and expression of EGFR. […] White arrows show individual cells with filopodia. FIG. 26C, Cell lysates were prepared from similar studies and immunoblotted for EGFR. The membranes were reprobed for Hsp90, which served as a loading control.
as §1

[6] = target: T1, GPR55; assay: Cellular uptake of TocriFluor T1117 in HepG2 cells; format: cell-based; parameters: host or cells: HepG2 hepatocarcinoma cells; settings: HepG2, 0.25 μM, 30 minutes pretreatment

SMILES: C[C@@H](Cc1ccc(O)cc1)NC[C@@H](O)c1cc(O)cc(O)c1 [(S,S′)-Fen, fenoterol]
- % Change in HepG2 cells ([3H]-thymidine incorporation) ([1]; 1 μM, 24 h): 9.7%
- IC50 [2]: 184 nM

SMILES: C=C(C)[C@@H]1CCC(C)=C[C@H]1c1c(C)cc(O)cc1O [O-1602, reference compound]
- GPR55 internalization [3]: led to marked endocytosis of HA-tagged GPR55
- ERK phosphorylation [4]: dose-dependently increased ERK phosphorylation
- EGFR levels [5]: led to higher EGFR levels when compared to vehicle-treated cells
- reduction in the amount of T1117 incorporated [6]: 47%
- delay in cellular accumulation of T1117 ([6]; 10 nM T1117): 12.5 min

SMILES: CCC(Cc1ccc(O)cc1)NCC(O)c1cc(O)cc(O)c1 [(R,R′)-ethylFen, (R,R′)-ethylfenoterol]
- % Change in HepG2 cells ([3H]-thymidine incorporation) ([1]; at 10 μM): (R,R′): 50.90 at 10 μM %
- IC50 [2]: 1.44 ± 0.27 nM
